# Source: Sander's compilation of Henry's law constants
# Where “and” joins values, the source holds several entries; their conditions need not be identical. Equal entries are not always repeated.
# Test: Henry solubility constant Hcp at 298.15 K (mol/(m3 Pa))
# [1] = reference: Wen and Muccitelli (1979)
# [2] = reference: Jönsson et al. (1982)
compound,measurement,setting,value
FC(F)(F)C(F)(F)C(F)(F)F [octafluoropropane],Henry solubility constant Hcp,[1],1.2e-07
C[Si](C)(C)O[Si](C)(C)O[Si](C)(C)C [octamethyltrisiloxane],Henry solubility constant Hcp,reference: Xu and Kropscott (2014),3.4e-07
CCCCCCCC=O [octanal],Henry solubility constant Hcp,reference: Buttery et al. (1965),0.075
CCCCCCCC [octane],Henry solubility constant Hcp,reference: Heidman et al. (1985),3.1e-06
same,Henry solubility constant Hcp,[2],2.9e-06
same,Henry solubility constant Hcp,reference: Park et al. (1997),3.3e-06
O=C1CCCCCCCCCCCCCCO1 [oxacyclohexadecan-2-one],Henry solubility constant Hcp,reference: Amoore and Buttery (1978),0.004
C1CO1 [oxirane],Henry solubility constant Hcp,reference: Conway et al. (1983),0.058
O=CC(=O)O [oxoethanoic acid],Henry solubility constant Hcp,reference: Ip et al. (2009),110
CC(Cl)CCC(Cl)C(Cl)CCC(Cl)CCl (stereo not drawn) [pentachlorodecane isomers],Henry solubility constant Hcp,reference: Drouillard et al. (1998),0.2 and 0.38
O=C(O)C(F)(F)C(F)(F)C(F)(F)C(F)(F)C(F)(F)C(F)(F)C(F)(F)F [pentadecafluorooctanoic acid],Henry solubility constant Hcp,reference: Kutsuna and Hori (2008b),0.049
same,Henry solubility constant Hcp,reference: Kwan (2001),2.8
same,Henry solubility constant Hcp,reference: Li et al. (2007),0.4
FC(F)C(F)(F)F [pentafluoroethane],Henry solubility constant Hcp,reference: Miguel et al. (2000),0.00031
same,Henry solubility constant Hcp,reference: Reichl (1995),3.5e-05
CCCCC [pentane],Henry solubility constant Hcp,reference: Jou and Mather (2000),8.7e-06
same,Henry solubility constant Hcp,[2],8.2e-06
O=CCCCC=O [pentanedial],Henry solubility constant Hcp,reference: Olson (1998),300
O=C(O)CCCC(=O)O [pentanedioic acid],Henry solubility constant Hcp,reference: Mentel et al. (2004),1.9e+07
CCCCC(=O)O [pentanoic acid],Henry solubility constant Hcp,reference: Khan and Brimblecombe (1992),21
same,Henry solubility constant Hcp,reference: Khan et al. (1995),23
same,Henry solubility constant Hcp,reference: Kim and Kim (2016),24
same,Henry solubility constant Hcp,reference: von Hartungen et al. (2004),12
O=C(O)C(F)(F)C(F)(F)C(F)(F)F [perfluorobutanoic acid],Henry solubility constant Hcp,reference: Kwan (2001),0.81
O=C(O)C(F)(F)C(F)(F)C(F)(F)C(F)(F)C(F)(F)C(F)(F)F [perfluoroheptanoic acid],Henry solubility constant Hcp,reference: Kwan (2001),1.7
O=C(O)C(F)(F)C(F)(F)C(F)(F)C(F)(F)C(F)(F)F [perfluorohexanoic acid],Henry solubility constant Hcp,reference: Kwan (2001),1.1
O=C(O)C(F)(F)C(F)(F)C(F)(F)C(F)(F)F [perfluoropentanoic acid],Henry solubility constant Hcp,reference: Kwan (2001),0.67
O=C(O)C(F)(F)C(F)(F)F [perfluoropropanoic acid],Henry solubility constant Hcp,reference: Kwan (2001),8.8
CC(=O)O[O] [peroxyacetyl radical],Henry solubility constant Hcp,reference: Villalta et al. (1996),< 0.00099
C1CCNCC1 [piperidine],Henry solubility constant Hcp,reference: Bernauer and Dohnal (2009),2.8
"COC(=O)CC(=O)OC [propanedioic acid, dimethyl ester]",Henry solubility constant Hcp,reference: Katrib et al. (2003),38
C=CC=O [propenal],Henry solubility constant Hcp,reference: Snider and Dawson (1985),0.072
C=CC [propene],Henry solubility constant Hcp,reference: Maaßen (1995),5.4e-05
same,Henry solubility constant Hcp,reference: Reichl (1995),5.4e-05
CCCOC=O [propyl methanoate],Henry solubility constant Hcp,reference: Kutsuna et al. (2005),0.026
C=COCCC [propyl vinyl ether],Henry solubility constant Hcp,reference: Hwang et al. (2010),0.0031
CCCc1ccccc1 [propylbenzene],Henry solubility constant Hcp,reference: Perlinger et al. (1993),0.00086
C#CC [propyne],Henry solubility constant Hcp,reference: Inga and McKetta (1961),0.00062
same,Henry solubility constant Hcp,reference: Simpson and Lovell (1962),0.00077
Cc1cc(C)nc(Nc2ccccc2)n1 [pyrimethanil],Henry solubility constant Hcp,reference: Feigenbrugel and Le Calvé (2021),340
[Rn] [radon],Henry solubility constant Hcp,reference: Lewis et al. (1987),9.4e-05
same,Henry solubility constant Hcp,reference: Ramstedt (1911),0.0001
O[Si](O)(O)O [silicic acid],Henry solubility constant Hcp,reference: Plyasunov (2012),2.3e+10
O=S(=O)(F)F [sulfuryl fluoride],Henry solubility constant Hcp,reference: Cady and Misra (1974),8.9e-05
COc1cc(CCC(C)=O)cc(OC)c1O [syringylacetone],Henry solubility constant Hcp,reference: McFall et al. (2020),1.2e+06
C[CH2][Pb]([CH2]C)([CH2]C)[CH2]C [tetraethyl lead],Henry solubility constant Hcp,reference: Feldhake and Stevens (1963),1.3e-05
FC(F)(F)F [tetrafluoromethane],Henry solubility constant Hcp,reference: Ashton et al. (1968),2.1e-06
same,Henry solubility constant Hcp,reference: Cosgrove and Walkley (1981),2.1e-06
same,Henry solubility constant Hcp,reference: Morrison and Johnstone (1954),2e-06
same,Henry solubility constant Hcp,reference: Park et al. (1982),2.1e-06
same,Henry solubility constant Hcp,reference: Reichl (1995),2e-06
same,Henry solubility constant Hcp,reference: Scharlin and Battino (1994),2.1e-06
same,Henry solubility constant Hcp,reference: Scharlin and Battino (1995),2.1e-06
same,Henry solubility constant Hcp,[1],2e-06
C1CCOCC1 [tetrahydropyran],Henry solubility constant Hcp,reference: Ondo and Dohnal (2007),0.083
[CH3][Sn]([CH3])([CH3])[CH3] [tetramethylstannane],Henry solubility constant Hcp,reference: Abraham and Nasehzadeh (1981),9.4e-06
c1ccsc1 [thiophene],Henry solubility constant Hcp,reference: Haimi et al. (2006),0.0041
"CCC=CCCC=CC=O [trans-2,cis-6-nonadienal]",Henry solubility constant Hcp,reference: Ömür-Özbek and Dietrich (2005),0.082
